Results on six compounds are retold here after patent publication US20130123108A1, “ACTIVE SUBSTANCE COMPOSITION COMPRISING AT LEAST ONE NITROGEN ATOM-CONTAINING, HYPERBRANCHED POLYMER” (BASF SE, priority 2005, published 2013).

Data set [1] can be described thus: Redispersing of polymer/active substance compositions in buffer, general procedure 1. It counts as physicochemical. Also noted: key: 1: unsatisfactory redispersing, sediment; 2: no ambiguous assessment possible; 3: complete redispersing with clouding (weak to opaque); 4: clear solution. To be noted: phosphate buffer pH 6.8. The procedure:
Each time 1 or 10% by weight solutions in N,N-dimethylformamide (DMF) of the hyperbranched polymer to be assessed and also 0.1% by weight solutions of the active substances, likewise in DMF, were provided. Active substance compositions were prepared by mixing in a Tecan pipetting robot with the use of 1 ml flat-bottomed glass vessels from HJ-Bioanalytik (96-well plates in the deep well format). Each time 50 μl of polymer and 500 μl of active substance solution were added to a vessel and the solvent was subsequently removed by drying for 24 hours in a vacuum-drying chamber at 70° C. and a pressure of less than 10 mbar. The test samples were subsequently redispersed by addition of 500 μl of buffer solution (phosphate buffer pH 6.8, 23.05 g of potassium dihydrogenphosphate, 23.30 g of disodium hydrogenphosphate, deionized water made up to 5000 ml) and subsequent shaking for two hours using an HP MTP shaker. The assessment was carried out by measuring the particle size using diffusion light scattering after a resting phase of 2 h.
1=unsatisfactory redispersing, sediment 2=no ambiguous assessment possible 3=complete redispersing with clouding (weak to opaque) 4=clear solution
Determination of the properties of aqueous active substance compositions according to general procedure 1. Use was made of bentazon at a polymer/active substance ratio of 1:1 and metazachlor at a polymer/active substance ratio of 10:1.

Data set [2] is described as follows: Solubility from solid dispersion with hyperbranched polymer, general procedure 2. The format is physicochemical. The note with it: for solubility at 24 h: pH 6.8, aqueous with cosolvent or surfactant or cyclodextrin, thermodynamic from solid. The procedure:
0.5 g of the chosen polymer and 0.1 g of a compound to be dissolved in water were dissolved in approximately 20 ml of N,N-dimethylformamide (DMF). The mixture was stirred and subsequently freed from DMF. A solid dispersion of the chosen copolymer with the chosen compound to be dissolved was obtained. The solid dispersion was added to 100 ml of water (buffered to pH 6.8) and the mixture was stirred for 24 h. After filtration, solutions were obtained and their contents of the compound to be dissolved were determined using HPLC and a UV detector. The literature values for water solubilities of the chosen compounds and the wavelengths of the measurement by UV spectroscopy are listed in table 1:
Determination of the properties of aqueous active substance compositions according to general procedure 2.

For data set [3] the following is noted: literature values, Table 1; cited from earlier work.
Data set [4] in a line: Solubility in supersaturated polymer solution, general procedure 3. The format is physicochemical. The note with it: phosphate buffer pH 7.0 with hyperbranched polymer, pH 7, aqueous with cosolvent or surfactant or cyclodextrin, thermodynamic from solid, 0.2 g piroxicam, 20 g phosphate buffer pH 7.0, UV spectroscopy. Here is the method: Approximately 2 g of polymer were weighed out in a glass beaker. Subsequently, 0.2 g of piroxicam or 0.3 g of carbamazepine was each time weighed out into the charge in order to obtain a supersaturated solution. Subsequently, 20 g of phosphate buffer pH 7.0 were added. After filtration, solutions were obtained and their contents of the compound to be dissolved were determined by UV spectroscopy.
Determination of the properties of aqueous active substance compositions according to general procedure 3.

For data set [5] the following is noted: literature values, Table 2; cited from earlier work.
Setting [6] is: water buffered to pH 6.8 with hyperbranched polymer, 0.5 g polymer, 0.1 g compound, 100 ml water buffered to pH 6.8, stirred 24 h, HPLC/UV, read-out: Solubility in the presence of Polymer 5.
[7] abbreviates: water buffered to pH 6.8 with hyperbranched polymer, Solubility in the presence of Polymer 1, 0.5 g polymer, 0.1 g compound, 100 ml water buffered to pH 6.8, stirred 24 h, HPLC/UV.

Where two headings read alike, the source gives them in different places.

With `CC(C)N1C(=O)c2ccccc2NS1(=O)=O` [Bentazon], the Assessment in data set [1] (Polymer from example 1, polymer/active substance ratio 1:1) turned out to be 4; in data set [1] (Polymer from example 6, polymer/active substance ratio 1:1), 4.
On to `NC(=O)N1c2ccccc2C=Cc2ccccc21` [Carbamazepine], for which the solubility at 24 h in data set [2] (setting [6]) amounted to 190 µg/mL; in data set [2] (setting [7]), 181 µg/mL; in data set [2] (water buffered to pH 6.8 with hyperbranched polymer, Solubility in the presence of Polymer 4, 0.5 g polymer, 0.1 g compound, 100 ml water buffered to pH 6.8, stirred 24 h, HPLC/UV), 336 µg/mL. Further, in data set [3], the “Water solubility (without polymer)” value is 120 µg/mL.
As to `CCOC(=O)/C(Cl)=C/c1cc(N2C(=O)C3=C(CCCC3)C2=O)ccc1Cl` [Cinidon-ethyl], the “Solubility in the presence of Polymer 1” value in data set [2] (0.5 g polymer, 0.1 g compound, 100 ml water buffered to pH 6.8, stirred 24 h, HPLC/UV) worked out at 97 µg/mL. In addition, the “Water solubility (without polymer)” value in data set [3] is 0.057 µg/mL.
With `N#Cc1nn(-c2c(Cl)cc(C(F)(F)F)cc2Cl)c(N)c1[S+]([O-])C(F)(F)F` (centres unmarked) [Fipronil], the solubility at 24 h in data set [2] (Solubility in the presence of Polymer 1) is 448 µg/mL.
`Cc1cccc(C)c1N(Cn1cccn1)C(=O)CCl` [Metazachlor]: the Assessment in data set [1] (Polymer from example 1, polymer/active substance ratio 10:1) came to 3; in data set [1] (Polymer from example 6, polymer/active substance ratio 10:1) it was 3.
As to `CN1C(C(=O)Nc2ccccn2)=C(O)c2ccccc2S1(=O)=O` [Piroxicam], the solubility at 24 h was determined as 1110 µg/mL in data set [2] (setting [6]) and 1020 µg/mL in data set [2] (setting [7]). Besides, the solubility in data set [4] (Solubility in the presence of Polymer 1, approx. 2 g polymer) came to 9200 µg/mL; in data set [4] (approx. 2 g polymer, read-out: Solubility in the presence of Polymer 3), 5300 µg/mL. For the same compound, the “Water solubility (without polymer)” value in data set [5] was 420 µg/mL; in data set [3], 200 µg/mL.
